Experimental data from patent US20240277708A1, “Use of [1,2,4] Triazolo [4,3-B] Pyridazine Derivative For Preventing and Treating Senescence and Senescence-Related Diseases” (The Eighth Affiliated Hospital, Sun Yat-Sen University, priority 2023, published 2024).

Columns and labels:
senescent TC-1 cells = assay: T cell killing assay (LDH release) on bleomycin-induced senescent TC-1 cells with immune cells from treated IPF mice; type: cell-based, mouse; details: ratio 1:50, 4 h
Description: 1, The senescence of TC-1 cells was induced with bleomycin, and the senescence of TC-1 cells was reflected through SA-β-Gal staining (FIG. 4A).
2, T cell killing assay: Bleomycin-induced senescent TC1 cells were plated at 10, 000/well in 96-well plates. The cell culture supernatant was discarded the next day, and then, PBMCS, CD3^+ T cells, and CD8^+ T cells isolated from normal mice, saline treated idiopathic pulmonary fibrosis (IPF) mice and C1632-treated IPF mice were add at a ratio of 1:50. After incubation at 37° C. for 4 h, the supematantwas obtained after centrifugation. LDH enzyme was released from the killed senescent cells, and the killing effect of immune cells on senescent cells was detected by LDH kit. Bleomycin at a dose of 2 mg/kg was sprayed into the lungs of mice to construct IPF mouse model, each group of the above experiments had at least 6 mice.
Isolation and culture of CD8^+ T cells: Mouse spleens were ground under sterile conditions and filtered through a 200-mesh sieve. The filtered cells were sorted by CD8^+ T cell isolation kit (biolegend). The sorted T cells were cultured in PRMI1640 medium containing 10% FBS, 5 μg/mL anti-mouse CD28 antibody (biolegend), and 10 ng/mL IL-2 in the plates coated overnight with 5 μg/mL CD3 antibody (biolegend) until use.

CKD mice (C57BL/6 male) = assay: Purine (AP) feed-induced chronic kidney disease (CKD) mouse model; type: in vivo; details: 68 mg/kg twice a week
Text: The protocol for constructing a chronic kidney disease (CKD) mouse model in this example was as follows: 8-week-old C57BL/6 male mice were fed with a feed containing 2‰ purine for 1 month, then, fed with a feedcontaining 1.5‰ purine for 3 months. There were at least 10 mice in each group.
(§1) The mice were divided into three groups: (1) normal group; (2) AP+Saline group; (3) AP+C1632 group, 10 mice in each group. The CKD mice in group (3) were fed with a feed containing 2‰ AP for 1 month and then treated with C1632. C1632 was administered twice a week at a dose of 68 mg/kg of body weight each time.
as §1, with “(2) AP+saline” for “(2) AP+Saline”, “group […]” for “group (3)”, “time. During the subsequent 83 days of treatment, the survival of the mice was counted.” for “time.”
The mice were divided into three groups: (1) normal group; (2) AP+saline group; (3) AP+C1632 group, 10 mice in each group. The CKD mice in group (2) and group (3) were fed with a feed containing 2‰ AP for 1 month and then treated with C1632. C1632 was administered twice a week at a dose of 68 mg/kg of body weight each time. After 3 months, the mice were sacrificed, and the kidneys were removed for Masson staining.

MRC5 cells = assay: VP16-induced cellular senescence, SA-β-gal staining, MRC5 cells; type: cell-based, Human; details: C1632 120 μM, VP16 40 μM for 4-7 days, FIG. 1A, 1C
Description: MRC5 and BJ cells were cultured in DMEM low-glucose medium containing 10% FBS. The cells were passaged or plated at a ratio of 1:3.0.5×10^5 cells were plated in 12-well plates and in the next day treated with VP16 at a final concentration of 40 μM for 4-7 days to induce cellular senescence. A cellular senescence model was constructed. While inducing cellular senescence, C1632 with a final concentration of 120 μM is added. The effect of C1632 on the senescence of BJ and MRC5 cells was detected by SA-β-gal staining, and the effect of C1632 on cellular senescence was studied.

C57BL/6 mice = assay: Safety profile in IPF model and control mice: body weight and routine blood test; type: in vivo
Description: In order to test the safety profile of C1632, the IPF model C57BL/6 mice and the control mice were intraperitoneally injected with 68 mg/kg C1632 three times a week and weighed, respectively. At the end of the experiment, the whole blood was a collected for routine blood test. […] In addition, the routine blood test results of mice in each group are mostly within the reference interval.

TERC−/− G4 mice = assay: TERC−/− G4 senescence mouse model: survival and lung immunohistochemistry; type: in vivo
Description: Paraffin sections were melted at 65° C. for 1 h, rehydrated by rinsing in xylene for 10 min, xylene for 10 min, absolute ethanol for 3 min, 95% ethanol for 3 min, 85% ethanol for 3 min, 70% ethanol for 3 min and water, followed by two rinses with PBS for 5 min each. The sections were blocked with 3% hydrogen peroxide (in methanol) for 10 min, and then washed twice with PBS for 5 min each time. Then the sections were put into antigen retrieval buffer (pH 6.0) and heat by microwave for 10 min to retrieve antigen, then, slowly cool the solution at room temperature for 1 h, and wash the solution twice with PBS for 5 min each time. The sections were blocked with 10% goat serum for 1 h, incubated overnight with the primary antibodies at 4° C. in the dark, washed twice with PBS for 5 min each time, incubated with the secondary antibodies at room temperature in the dark for 30 min, and washed twice with PBS for 5 min each time. The sections were subjected to DAB color development and hematoxylin staining, and then rinsed in tap water for 8 min to produce a blue color. The sections were dehydrated with gradient alcohol, dried, and sealed with neutral gum.
1, TERC−/−G4 senescence mouse model: Mice had very long telomere length, and it took 3-6 generations of breeding to develop a premature senescence phenotype after telomerase knockout. TERC+/−mice were screened for TERC+/−mice as breeding protection. The first generation of TERC−/− mice was G1 mice. G1 mice were mated with each other to give birth to G2 mice, which continued to reproduce until G4. At this time, mice had very short telomeres and could develop senescence phenotype at 3-4 months of age.
2, Genotype identification of TERC knockout mice: Small segments of tails were cut from the identified mice and digested in 10 mM Tris-HCl 0.5% SDS 1 mM EDTA pH8.0 buffer containing 0.4 mg/mL proteinase K at 65° C. for 2 hours, and then 0.5 μL digestive solution was used as a template for PCR amplification. PCR products which were 250 bp indicated wild-type and 180 bp indicated TERC knockdown.
3, One-month-old G4 mice were given 68 mg/kg C1632 once a week, with 10 mice in each group.
4, Since senescent cells were mainly eliminated by immune cells in vivo, in addition to inhibiting the generation of senescent cells, the inventors also examined the effect of C1632 on the immune microenvironment of senescent lung tissue.

[1] = normal mice, 68 mg/kg i.p. three times a week

CC(=O)N(C)c1cccc(-c2ccc3nnc(C)n3n2)c1 [C1632]
Killing activity of CD3+ T cells against senescent TC-1 cells (LDH release) (senescent TC-1 cells; CD3+ T cells from C1632-treated IPF mice vs saline-treated IPF mice, FIG. 4C): significantly enhanced killing activity | Killing activity of CD8+ T cells against senescent cells (LDH release) (senescent TC-1 cells; CD8+ T cells from C1632-treated IPF mice vs normal mice and saline-treated IPF mice, FIG. 4D): significantly higher | Killing activity of PBMC against senescent TC-1 cells (LDH release) (senescent TC-1 cells; PBMC from C1632-treated IPF mice vs saline-treated IPF mice, FIG. 4B): significantly enhanced killing activity | Mortality of CKD model mice (CKD mice (C57BL/6 male); 83 days of treatment, FIG. 13): significantly reduces the mortality | Collagen fibers in the kidney, Masson staining (kidney fibrosis) (CKD mice (C57BL/6 male); after 3 months, FIG. 14): significantly inhibits the level of collagen fibers | Weight loss in CKD mice (CKD mice (C57BL/6 male); vs control (saline) mice, FIG. 12): significantly inhibits weight loss | VP16-induced senescence (β-gal-positive cell rate) in MRC5 cells (MRC5 cells): inhibits VP16-induced senescence | Routine blood tests overall (C57BL/6 mice; IPF mice, 68 mg/kg i.p. three times a week, FIG. 11B to 11S): does not cause deterioration | Body weight compared with the corresponding saline group (C57BL/6 mice; IPF model and control mice, 68 mg/kg intraperitoneally three times a week, FIG. 11A): does not significantly change the body weight | Mean platelet volume (MPV), model group (C57BL/6 mice; IPF model mice, 68 mg/kg i.p. three times a week): no significant effect | PDW, fibrotic mice (C57BL/6 mice; fibrotic (IPF) mice, 68 mg/kg i.p. three times a week): no significant effect | Mean platelet volume (MPV), normal mice (C57BL/6 mice; [1]): significantly increase | PDW, normal mice (C57BL/6 mice; [1]): significantly inhibits | Life span of TERC−/− G4 mice (TERC−/− G4 mice; 68 mg/kg once a week, survival curves FIG. 2A): greatly extended the life span | Mice still surviving when all control mice had died (TERC−/− G4 mice; TERC−/− G4 mice, 68 mg/kg once a week from one month of age, 3 and a half months after the experiment, FIG. 2A): 80% | Immunosuppressive T cell marker FOXP3 in senescent lung tissue (immunohistochemistry) (TERC−/− G4 mice; lung tissues from senescence mice, FIG. 3): reduces the immunosuppressive T cell marker FOXP3 | Lung tissue senescence (expression of senescence markers p16 and p21, immunohistochemistry) (TERC−/− G4 mice; lungs of TERC−/− G4 mice, 68 mg/kg once a week, FIG. 2B): significantly inhibited lung tissue senescence
